Key:
[1] = system: ILT3 surface molecule expression on immature dendritic cells; assay: ILT3 upregulation on monocyte-derived immature dendritic cells, flow cytometric analysis; format: cell-based, human; conditions: immature dendritic cells cultured 24 hours with graded doses, up to 1000 nM
Description: Immature dendritic cells (DC) were prepared as described in Romani, N. et al. (Romani, N. et al. (1996) J. Immunol. Meth. 196:137). Briefly, peripheral blood mononuclear cells (PBMCs) were obtained from a buffy coat by ficoll-hypaque gradient (Pharmacia Biotec AB, Upsala, Sweden) and monocytes isolated from PBMCs by negative selected with a monocyte isolation kit (Milteny, Biotech, Bergish Gladblach, Germany). After isolation, monocytes were cultured for 6 to 7 days at a cell density of 1-2×10^6 in RPMI medium supplemented with 5% FetalClone I (Hyclone Laboratories, Logan, Utah) 2 mM L-glutamine, […], 1 mM sodium pyruvate and 1% nonessential amino acids, containing 800 U/ml GM-CSF (Mielogen 300, Schering-Plough) and 10 ng/ml interleukin (IL)-4 (PharMingen, San Diego, Calif.). Every other day, approximately 20% of the medium was removed and replaced by the same volume of fresh medium containing GM-CSF and IL-4.
After 6 to 7 days of culture, non-adherent cells (representing immature Dendritic Cells) were harvested and cultured for 24 hours in the presence of graded doses of the following vitamin D compounds: 1,25(OH)2D3; 1,3-O-Diacetyl-1,25 Dihydroxy-16-ene-24-Keto-19-nor Cholecalciferol (compound (2)); and the compounds Mycophenolate Mofetil (MMF) and Dexamethasone (DEX).
Immunoglobulin-Hike transcript-3 upregulation was evaluated by flow cytometric analysis. Briefly, cells were preincubated with […] human IgG (Sigma Chemical, St. Louis, Mo.) and subsequently stained with anti-human ILT3 antibody (see, e.g., Cella, M. et al. (1997) J. Exp. Med. 185:1743) followed by anti-mouse IgG-phycoerithryn (Jackson). Cells were then analyzed with a FACScan® flow cytometer using a Cell Quests software program (both from Beckton Dickinson, Mountain View, Calif.).

[2] = Maximum tolerated dose (MTD) without inducing hypercalcemia, oral daily dosing for four days, serum calcium assay; format: in vivo, C57BL/6 mice
Description: The maximum tolerated dose of the vitamin D3 compounds of the invention were determined in eight week-old female C57BL/6 mice (3 mice/group) dosed orally (0.1 ml/mouse) with various concentrations of Vitamin D3 analogs daily for four days. Analogs were formulated in miglyol for a final concentration of 0.01, 0.03, 0.1 0.3, 1, 3, 10, 30, 100 and 300 μg/kg when given at 0.1 ml/mouse p.o. daily. Blood for serum calcium assay was drawn by tail bleed on day five, the final day of the study. Serum calcium levels were determined using a colorimetric assay (Sigma Diagnostics, procedure no. 597). The highest dose of analog tolerated without inducing hypercalcemia (serum calcium >10.7 mg /dl) was taken as the maximum tolerated dose (MTD).

[3] = system: IFN-γ production in MLR (allogeneic PBMC); assay: IFN-γ production by allogeneic T cell activation in the mixed leukocyte response (MLR), ELISA; format: cell-based; conditions: 120 h, MLR of allogeneic PBMC from 2 donors, 5 days, read-out: INF-γ IC50
Description: Immature dendritic cells (DC) were prepared as described in Romani, N. et al. (Romani, N. et al. (1996) J. Immunol. Meth. 196:137). IFN-γ production by allogeneic T cell activation in the mixed leukocyte response (MLR) was determined as described in Penna, G., et al., J. Immunol., 164: 2405-2411 (2000).
Briefly, peripheral blood mononuclear cells (PBMC) were separated from buffy coats by Ficoll gradient and the same number (3×10^5) of allogeneic PBMC from 2 different donors were co-cultured in 96-well flat-bottom plates. After 5 days, IFN-γ production in the MLR assay was measured by ELISA and the results expressed as amount (nM) of test compound required to induce 50% inhibition of IFN-γ production (IC50).

[4] = female C57BL/6 mice, p.o. daily for four days, highest dose without hypercalcemia (serum calcium >10.7 mg/dl)

Molecule	ILT3 expression on cell surface [1]	MTD (mice) [2, 4] [µg/kg]	IC50 [3] [pM]	MTD relative to compound (1) ([2]; mice, oral, ratio of the MTD of compound (2) to that of the corresponding dihydroxy compound (1))	MTD at 4 days ([2]; mouse, po, female C57BL/6 mice, p.o. daily for four days, highest dose without hypercalcemia (serum calcium >10.7 mg/dl)) [mg/kg]
COc1c(C)c2c(c(O)c1C/C=C(\C)CCC(=O)OCCN1CCOCC1)C(=O)OC2 [MMF, Mycophenolate Mofetil]	fail to upregulate				
CC(CCC(=O)C(C)(C)O)C1=CCC2C(=CC=C3CC(O)CC(O)C3)CCCC12C (centres unmarked) [(1), 1,25-dihydroxy-16-ene-24-keto-19-nor-cholecalciferol]		1			
1,25(OH)2D3	upregulated	1			
CC(=O)O[C@@H]1CC(=C/C=C2\CCC[C@]3(C)C([C@H](C)CCC(=O)C(C)(C)O)=CCC23)C[C@@H](OC(C)=O)C1 (some centres unmarked) [Compound (2), 1,3-O-Diacetyl-1,25-Dihydroxy-16-ene-24-Keto-19-nor-Cholecalciferol]	upregulated		8	more than 300 times	> 0.3
